What all share (assay): NCI tumour cell line growth inhibition, 48 h
Assay [1] has as its system SN12C renal.
Assay [2] has as its system HOP-92 NSCLC.
Assay [3] has as its system OVCAR-3 ovarian.
The test system of assay [4] is SNB-19 CNS.
Assay [5] relates to NCI-H460 lung.
In assay [6] the test system is OVCAR-8 ovarian.
Assay [7] relates to HCC-2998 colon.
The test system of assay [8] is HL-60(TB) leukemia.
The test system of assay [9] is OVCAR-5 ovarian.
For assay [10], the system named is T-47D breast.
For assay [11], the system named is BT-549 breast.
Assay [12] relates to SW-620 colon.
Assay [13] deals with NCI/ADR-RES ovarian.
The subject of assay [14] is UACC-62 melanoma.
For assay [15], the system named is CCRF-CEM leukemia.
Assay [16] relates to A498 renal.

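48-hour exposure; five concentrations; linearly interpolated endpoints. TGI: total growth inhibition.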

As for `Cc1c(C(=O)O)c2cc3ccccc3cc2c(=O)n1C`, the TGI in [1], in [2], in assay [3], in assay [4], in [5] and in assay [6] was over 10 µM each time. The TGI in assay [7], in assay [8], in assay [9], in assay [10], in assay [11] and in assay [12] was over 10 µM in each case. Further, the TGI in [13] and in assay [14] was over 10 µM in each case.

Consider `N#CC1CCN2N=C(c3ccccc3)SC12c1ccccc1` (stereo unspecified), for which the TGI in assay [1], in [2], in assay [4], in assay [5], in assay [6] and in assay [7] was over 100 µM in each case. The TGI in assay [8], in assay [9], in [10], in [11], in assay [12] and in assay [13] was over 100 µM each time. In [14], this compound registered a TGI of 29.5 µM.

As to `COc1ccc(C2=NN(c3ccccc3)C(c3cc4cc(Br)ccc4nc3Cl)C2)cc1` (stereo unspecified), the TGI in [1], in assay [2], in assay [3], in assay [4], in assay [6] and in assay [15] was over 25 µM each time. Further, the TGI in assay [8], in assay [9], in [10], in [11], in [12] and in assay [13] was over 25 µM each time.

Consider `CC1C/C(=N\N(C)C)C(C#N)(C#N)C1(C#N)C#N` (stereo unspecified), for which the TGI in [1] is 34.4 µM; in assay [2], 11.6 µM; in [3], 33.9 µM; in assay [4], over 70.6 µM; in [6], 45 µM; in assay [7] it was 31.5 µM. For the same compound, the TGI in [15] was over 100 µM; in assay [8], over 100 µM; in assay [9], 48.5 µM; in assay [10], 37.7 µM; in assay [11], 22.1 µM; in assay [12], over 100 µM. The TGI in assay [13] turned out to be 75.8 µM; in assay [14] it was 39.5 µM.

Take `CC1(C)CN=C(Nc2ccc(Cl)cc2)S1`: the TGI in assay [1], in [2], in assay [3], in [4], in assay [6] and in assay [7] was over 100 µM in each case. Moreover, the TGI in [15], in assay [8], in assay [9], in assay [10], in assay [11] and in assay [12] was over 100 µM throughout. Moreover, the TGI in [13] and in assay [14] was over 100 µM in each case.

Regarding `CCN(CC)Cc1nc(C2CCC([N+](=O)[O-])O2)no1` (stereo unspecified), the TGI in assay [1] was over 100 µM; in assay [2], over 100 µM; in [3], 56.7 µM; in assay [4], 87.8 µM; in [5], 44.5 µM; in assay [6], over 100 µM. Further, the TGI is 42.4 µM in assay [7]; over 100 µM in assay [15]; 40.5 µM in [8]; 84.2 µM in [9]; 98 µM in [10]; 56.7 µM in assay [11]. For the same compound, the TGI is 35.9 µM in assay [12], 76.3 µM in assay [13] and 30.7 µM in assay [14].

Take `O=C(N/N=C1/C(=O)c2c3ccccc3cc3cccc1c23)c1cccc(Cl)c1`: the TGI in assay [16], in assay [1], in assay [2], in [3], in [4] and in assay [5] was over 100 µM each time. Further, the TGI in assay [6], in [7], in [15], in [8], in [9] and in assay [11] was over 100 µM throughout. For the same compound, the TGI in [12], in assay [13] and in [14] was over 100 µM in each case.

Take `CC(C)CC(=O)NC(NC(C)C)(C(F)(F)F)C(F)(F)F`: the TGI in [1], in [2], in assay [4], in assay [5], in assay [6] and in assay [7] was over 100 µM each time. The TGI in assay [15], in [8], in [10], in assay [11], in assay [12] and in assay [13] was over 100 µM in each case. The TGI in assay [14] is over 100 µM.

As for `Cc1ccc(-n2c(Cn3nnc(-c4cccnc4)n3)nn(C3OC(COC(=O)c4ccccc4)C(OC(=O)c4ccccc4)C3OC(=O)c3ccccc3)c2=S)cc1` (stereo unspecified), the TGI in assay [1], in assay [3], in assay [4], in assay [5], in assay [6] and in assay [7] was over 100 µM in each case. In addition, the TGI in [15], in assay [9], in [10], in [11], in assay [12] and in [13] was over 100 µM each time. In addition, the TGI in [14] is over 100 µM.

For `COC(=O)/C=C1/N=C(N(C)/N=C/c2ccccc2)NC1=O`, the TGI in assay [1], in assay [3], in assay [4], in [5], in assay [6] and in [7] was over 100 µM throughout. In addition, the TGI in [15], in assay [8], in [9], in [10], in assay [11] and in assay [12] was over 100 µM throughout. Further, the TGI in [13] and in assay [14] was over 100 µM each time.

With `CCN1CC2=C(NC(=S)NC2c2cc(OC)c(OC)c(OC)c2)/C(=C/c2cc(OC)c(OC)c(OC)c2)C1` (stereo unspecified), the TGI is 87.8 µM in [16]; 60.4 µM in [2]; over 100 µM in assay [3]; over 100 µM in assay [4]; over 100 µM in [5]; 61.6 µM in assay [6]. Further, the TGI was 88.8 µM in assay [7]; over 100 µM in assay [15]; 56.7 µM in [8]; over 100 µM in [9]; over 100 µM in assay [11]; over 100 µM in [12]. Besides, the TGI in assay [13] and in [14] was over 100 µM in each case.

Consider `Cc1ccc(CS(=O)(=O)C/N=c2\sc3ccccc3nc2/C=C(\O)c2ccc(Cl)cc2)cc1`, for which the TGI in [1], in assay [2], in [3], in assay [4], in [6] and in [7] was over 10 µM each time. For the same compound, the TGI in assay [9], in assay [10], in assay [11], in assay [12], in [13] and in assay [14] was over 10 µM in each case.

Turning to `OCC1OC(n2nc(-c3ccccc3)nc2-c2cnccn2)C(O)C1O` (stereo unspecified), the TGI in assay [1], in [2], in assay [3], in [4], in assay [5] and in assay [6] was over 100 µM in each case. Further, the TGI in [7], in [15], in assay [8], in assay [9], in [10] and in [11] was over 100 µM throughout. Moreover, the TGI in assay [12], in assay [13] and in assay [14] was over 100 µM throughout.

As for `Cc1ccc(S(=O)(=O)Oc2ccc(OS(=O)(=O)c3ccc(C)cc3)c3c2C(=O)c2ccccc2C3=O)cc1`, the TGI in assay [1], in [2], in [3], in assay [4], in [5] and in assay [6] was over 100 µM each time. The TGI in assay [7], in assay [15], in [8], in assay [9], in assay [10] and in [11] was over 100 µM in each case. In addition, the TGI in assay [12], in assay [13] and in [14] was over 100 µM throughout.

For `CC(C)N=C(NC#N)NS(=O)(=O)c1cnccc1Nc1ccc(Cl)cc1`, the TGI in assay [16], in assay [1], in [3], in [4], in assay [6] and in [7] was over 100 µM throughout. Further, the TGI in [15], in assay [9], in [10], in assay [11], in assay [12] and in assay [13] was over 100 µM in each case. For the same compound, the TGI in [14] is over 100 µM.

These data come from PubChem BioAssay (NCI).
